Reference: patent publication EP4488278A1, “SUBSTITUTED PYRIDYL/PYRAZINYL DIHYDROPYRROLOTRIAZINE COMPOUNDS FOR COMBATTING PHYTOPATH-OGENIC FUNGI” (BASF SE, priority 2023, dated 2025)

Key:
Botrytis cinerea [1] = assay: Green house: preventative fungicidal control of Botrytis cinerea on leaves of green pepper; type: in vivo; conditions: 250 ppm active substance, green pepper plants sprayed to run-off one day before inoculation; assessed visually as % diseased leaf area after 5 days at 22 to 24°C; untreated plants 90% infected
Procedure: The compound was dissolved in a mixture of acetone and/or dimethylsulfoxide and the wetting agent/emulsifier Wettol, which is based on ethoxylated alkylphenoles, in a ratio (volume) solvent-emulsifier of 99 to 1 to give a total volume of 5 ml. Subsequently, water was added to total volume of 100 ml. This stock solution was then diluted with the described solvent-emulsifier-water mixture to the final concentration given in the table below. Young seedlings of green pepper were grown in pots to the 4 to 5 leaf stage. These plants were sprayed to run-off with previously described spray solution, containing the concentration of active ingredient or mixture mentioned in the table below. The next day the plants were inoculated with an aqueous biomalt or DOB solution containing the spore suspension of Botrytis cinerea. Then the plants were immediately transferred to a humid chamber. After 5 days at 22 to 24°C and a saturated relative humidity, the extent of fungal attack on the leaves was visually assessed as % diseased leaf area.

Botrytis cinerea [2] = assay: Microtest: activity against the grey mold Botrytis cinerea in the microtiterplate test; type: cell-based; conditions: 31 ppm active substance; absorption at 405 nm 7 days after inoculation, 18°C; relative to active compound-free control (100%)
Procedure: The active compounds were formulated separately as a stock solution having a concentration of 10000 ppm in dimethyl sulfoxide.
The stock solutions were mixed according to the ratio, pipetted onto a micro titer plate (MTP) and diluted with water to the stated concentrations. A spore suspension of Botrci cinerea in an aqueous biomalt or yeast-bactopeptone-sodiumacetate solution was then added. The plates were placed in a water vapor-saturated chamber at a temperature of 18°C. Using an absorption photometer, the MTPs were measured at 405 nm 7 days after the inoculation.
The measured parameters were compared to the growth of the active compound-free control variant (100%) and the fungus-free blank value to determine the relative growth in % of the pathogens in the respective active compounds.

SMILES | growth of the pathogen (Botrytis cinerea [1]) | growth of the pathogen (Botrytis cinerea [2])
Cc1cc(C2=NC(C)(C)N(C)n3cccc32)cnc1C(F)F [Ex-1, 4-(6-(difluoromethyl)-5-methylpyridin-3-yl)-1,2,2-trimethyl-1,2-dihydropyrrolo[2,1-f][1,2,4]triazine] | at most 7% | 0%
Cc1cc(C2=NC(C)(C)Nn3cccc32)cnc1C(F)F [Ex-2, 4-(6-(difluoromethyl)-5-methylpyridin-3-yl)-2,2-dimethyl-1,2-dihydropyrrolo[2,1-f][1,2,4]triazine] | – | 0%
